From patent US10159265B2, “Feed composition for reducing ruminant methanogenesis” (priority 2012, dated 2018)
Marks after values point to notes of the source that are not given here.

Columns and labels:
[1] = test system: Megasphaera elsdenii; test: qPCR relative quantification of Megasphaera elsdenii; assay type: cell-based; details: 12 hours of incubation
Protocol: (§1) Rumen cannulated calves which received a mixed ration mainly composed of concentrate (90:10) were used as rumen fluid donor; feed composition is presented in Table 1. The inoculum was collected and filtered through two-layer surgical gauze and kept in thermo pots. Flavonoids (Table 2) plus 600 mg of concentrate (Table 1) and 60 mg of barley straw as the substrate were dosed by triplicate in preheated bottles (39° C.) and maintained under anaerobic conditions. Flavonoids isonaringin, neoeritrocin, poncirin were purchased from INDOFINE Chemical Company, Inc (USA). 10 ml of rumen fluid and 40 ml of incubation medium were added to the bottles (McDougall, El (1948) Studies on ruminant saliva. 1. The composition and output of sheep's saliva. Biochem J. 43(1) 99-109). Once the bottles were filled and the anaerobic condition was applied, the bottles were sealed and the incubation process was started in a hot water bath. Pressure readings were made at 2, 4, 6, 8, 12, 24, 36 and 48 hours. Each sample was incubated in triplicate in two sets or batches.
(§2) After 12 hours of incubation, one bottle (replicate) from each treatment was opened, pH was recorded and the bottle was sampled for volatile fatty acids (Jouany, J. P., 1982 Science des Aliments 2, 131-144), lactate (Taylor, K. A. C. C., 1996. Appl. Biochem. Biotechnol. Enzym. Eng. Biotechnol. 56, 49-58) and ammonia (Chaney, A. L., Marbach, E. P., 1962. Clin. Chem. 8, 130-132) analyses.
(§3) The environmental DNA was extracted using the technique proposed by Yu and Morrison (2004). Quantification of Streptococcus bovis, Megasphaera elsdenii and Selenomonas ruminantium DNA was done by qPCR using specific primers (Tajima, K. et al. 2001. Appl. Environ. Microb. 67, 2766-2774; Ouwerkerk, D., et al. 2002. J. Appl. Microbiol. 92, 753-758). Results were statistically analyzed using the PROC MIXED procedure of SAS statistical package (SAS, 2000, User's guide: Statistics, version 8 editions inst., Inc., Cary, N.C.). The least significant difference was used to compare the means. Differences between means in which P<0.05 were accepted as significant.

[2] = test system: "in vitro" ruminal fluid cultures; test: Ammonia (N-NH3) concentration in "in vitro" ruminal fluid cultures; assay type: cell-based, calves
From the text: (§4) Two trials following an identical experimental protocol were designed to study the effect of different pure flavonoids on rumen fermentation using a simulatory “in vitro” system based on the experimental protocol described by Theodorou M K et al. (1994) Animal Feed Science and Technology, 48 (3), p. 185-197; Mauricio, R. M., et al. (1999) Animal Feed Science and Technology 79, 321-330.
as §1, §2

[3] = test system: "in vitro" ruminal fluid culture; test: Lactate concentration in "in vitro" ruminal fluid culture; assay type: cell-based, calves; details: 12 hours of incubation
From the text: as §4, §1, §2

[4] = test system: "in vitro" ruminal fluid cultures; test: Ammonia (N-NH3) concentration in "in vitro" ruminal fluid cultures; assay type: cell-based, calves; details: 72 h
[5] = test system: Selenomonas ruminantium; test: qPCR relative quantification of Selenomonas ruminantium; assay type: cell-based; details: 12 hours of incubation
Protocol: as §1, §2, §3

[6] = test system: "in vitro" ruminal fluid cultures; test: Volatile fatty acid concentration and molar proportions in "in vitro" ruminal fluid cultures; assay type: cell-based, calves
From the text: as §4, §1
[…] P., 1982 Science des Aliments 2, 131-144), lactate (Taylor, K. A. C. C., 1996. Appl. Biochem. Biotechnol. Enzym. Eng. Biotechnol. 56, 49-58) and ammonia (Chaney, A. L., Marbach, E. P., 1962. Clin. Chem. 8, 130-132) analyses.

[7] = test system: ruminal bacteria; test: Bacterial DNA concentration by qPCR; assay type: cell-based, calves; details: 12 hours of incubation
Protocol: as §1, §2, §3

[8] = test system: "in vitro" rumen fluid culture; test: Biogas production in "in vitro" rumen fluid culture (pressure meter); assay type: cell-based, calves; design: Average biogas production / Cumulative biogas production / Biogas production: unit not given here; details: for Average biogas production: average over doses and incubation times
Protocol: as §4
Gas production was determined from a semi-automatic pressure meter, the relationship between pressure levels and the produced gas volume was previously calculated.
as §1, with “Pressure readings were made at 2, 4, 6, 8, 12, 24, 36 and 48 hours.” left out

[9] = test system: methanogenic (archea) populations; test: Methane production in "in vitro" rumen fluid culture; assay type: cell-based, calves; design: Average methane production / Accumulated methane production / Methane production / Cumulative methane production: unit not given here
From the text: as §4
as §1, with “Pressure readings were made at 2, 4, 6, 8, 12, 24, 36 and 48 hours.” left out
The effects of flavonoids substances on fermentation activity of certain archea populations which are theoretically responsible for the methane production were analyzed.
The experimental design allows determining whether the effect of flavonoids on methane reduction was derived from a general reduction in microbial activity and biogas production or contrarily flavonoid affects specifically on methanogenic (archea) populations. The presence of flavonoids in the culture medium reduced methane contribution in the total biogas production (P<0.05) although, again, the aforementioned impact was heterogeneous.

[10] = test system: Streptococcus bovis; test: qPCR relative quantification of Streptococcus bovis; assay type: cell-based; details: 12 hours of incubation
Protocol: as §1, §2, §3

[11] = Exp 1, average over doses and incubation times, listed as neohesperidin

Structure (SMILES): COc1ccc([C@@H]2CC(=O)c3c(O)cc(O[C@@H]4O[C@H](CO)[C@@H](O)[C@H](O)[C@H]4O[C@@H]4O[C@@H](C)[C@H](O)[C@@H](O)[C@H]4O)cc3O2)cc1O [Neohesperidin, neohesperidin]
- Relative Quantification 2^(ΔΔCt) M. elsdenii [1]: 1.35 ^c
- Relative Quantification 2^(ΔΔCt) M. elsdenii ([1]; listed as neohesperidin): improved
- N-NH3 concentration ([2]; 0 h (initial constant value)): 149.99 mg/L
- N-NH3 concentration ([2]; 12 h): 168.38 mg/L
- N-NH3 concentration, average (M) ([2]; average over incubation times): 219.18 mg/L
- Lactate [3]: 45.8 mg/L
- Lactate ([3]; listed as neohesperidin): tended to moderate the recorded increase
- N-NH3 concentration [4]: 339.17 mg/L
- Relative Quantification 2^(ΔΔCt) S. ruminantium [5]: 0.53
- % Acetate, molar ratio ([6]; 0 h): 62.51 mol/100 mol
- % Butyrate, molar ratio ([6]; 0 h): 9.07 mol/100 mol
- % Propionate, molar ratio ([6]; 0 h): 20.03 mol/100 mol
- A/P rate (acetate/propionate) ([6]; 0 h): 3.12
- VFA concentration ([6]; 0 h (initial constant value)): 13.78 mmol/L
- % Acetate, molar ratio ([6]; 12 h): 54.68 mol/100 mol
- % Butyrate, molar ratio ([6]; 12 h): 9.68 mol/100 mol
- % Propionate, molar ratio ([6]; 12 h): 30.05 mol/100 mol
- A/P rate (acetate/propionate) ([6]; 12 h): 1.82
- VFA concentration ([6]; 12 h): 36.97 mmol/L
- % Acetate, molar ratio ([6]; 72 h): 55.68 mol/100 mol
- % Butyrate, molar ratio ([6]; 72 h): 9.96 mol/100 mol
- % Propionate, molar ratio ([6]; 72 h): 26.91 mol/100 mol
- A/P rate (acetate/propionate) ([6]; 72 h): 2.07
- VFA concentration ([6]; 72 h): 53.04 mmol/L
- % Acetate, molar ratio, average (μ) ([6]; average over incubation times): 57.62 mol/100 mol
- % Butyrate, molar ratio, average (μ) ([6]; average over incubation times): 9.57 ^a mol/100 mol
- % Propionate, molar ratio, average (M) ([6]; average over incubation times): 25.66 ^b mol/100 mol
- VFA concentration, average (μ) ([6]; average over incubation times): 34.60 mmol/L
- Bacteria DNA [7]: 23.93 ^ab μg/ml
- Bacteria DNA ([7]; listed as neohesperidin): increase did only reach statistical significance
- Cumulative biogas production ([8]; Exp 1, 12 h incubation): 175.93
- Cumulative biogas production ([8]; Exp 1, 24 h incubation): 217.84
- Cumulative biogas production ([8]; Exp 1, 48 h incubation): 253.99
- Cumulative biogas production ([8]; Exp 1, 72 h incubation): 275.06
- Average biogas production ([8]; Exp 1): 230.71^e
- Average biogas production ([8]; Exp 1, listed as neohesperidin): 230.7
- Biogas production ([8]; Exp 1, dose 1, 0.2 g/kg DM): 238.13
- Biogas production ([8]; Exp 1, dose 2, 0.5 g/kg DM): 223.28
- Dosage effect on gas production ([8]; Exp 1, inclusion levels 200 and 500 mg/kg): more pronounced dosage effect
- Average biogas production ([8]; Exp 2 (second trial)): 268.16^c
- Cumulative biogas production ([8]; Exp 2, 12 h): 215.60
- Cumulative biogas production ([8]; Exp 2, 24 h): 256.18
- Cumulative biogas production ([8]; Exp 2, 48 h): 292.28
- Cumulative biogas production ([8]; Exp 2, 72 h): 308.57
- Biogas production ([8]; Exp 2, dose 1, 0.2 g/kg DM): 267.1
- Biogas production ([8]; Exp 2, dose 2, 0.5 g/kg DM): 269.2
- Dosage effect on methane production ([9]; Exp 1, 200 vs 500 mg/kg DM): more reduced by increasing the dose
- Accumulated methane production ([9]; Exp 1, 12 h): 18.02
- Proportion of methane in the produced biogas ([9]; Exp 1, 12 h): 10.21
- Accumulated methane production ([9]; Exp 1, 24 h): 23.15
- Proportion of methane in the produced biogas ([9]; Exp 1, 24 h): 12.34
- Accumulated methane production ([9]; Exp 1, 48 h): 28.84
- Proportion of methane in the produced biogas ([9]; Exp 1, 48 h): 15.91
- Accumulated methane production ([9]; Exp 1, 72 h): 32.18
- Proportion of methane in the produced biogas ([9]; Exp 1, 72 h): 16.20
- Proportion of methane in the produced biogas ([9]; Exp 1, average over doses and incubation times): 13.66^d
- Average methane production [9, 11]: decreased
- Proportion of methane in the produced biogas [9, 11]: 13.70
- Methane production ([9]; Exp 1, dose 1, 0.2 g/kg DM): 27.63
- Proportion of methane in the produced biogas ([9]; Exp 1, dose 1, 0.2 g/kg DM): 13.98
- Methane production ([9]; Exp 1, dose 2, 0.5 g/kg DM): 23.46
- Proportion of methane in the produced biogas ([9]; Exp 1, dose 2, 0.5 g/kg DM): 13.35
- Average methane production ([9]; Exp 2 (second trial), average over doses and incubation times): 30.44^b
- Cumulative methane production ([9]; Exp 2, 12 h): 22.52
- Cumulative methane production ([9]; Exp 2, 24 h): 27.98
- Cumulative methane production ([9]; Exp 2, 48 h): 34.31
- Cumulative methane production ([9]; Exp 2, 72 h): 36.95
- Methane production ([9]; Exp 2, dose 1, 0.2 g/kg DM): 30.1
- Methane production ([9]; Exp 2, dose 2, 0.5 g/kg DM): 30.8
- Relative Quantification 2^(ΔΔCt) S. bovis [10]: 0.25
